The values below come from publication PMC12492669, “Malic enzyme-based system for transhydrogenation between nicotinamide cofactors” (Synthetic and Systems Biotechnology, 2025).

The experiment deals with T1, ME (NAD-dependent malic enzyme); ME∗ (ME mutant with L310R/Q401C) (Escherichia coli, UniProt P26616).
T1 construct: gene maeA; recombinant from E. coli BL21(DE3), pET24b-ME, Ni-NTA purified; 64 kDa
Nature of the experiment: malate oxidative decarboxylation, absorbance at […] nm. The class given is biochemical. Particulars: 0.5 mM NCD, 5 mM malate, 2 mM MgCl2, 50 mM HEPES pH 7.5; weak.

T1 sequence (P26616 whole entry, stated change not applied): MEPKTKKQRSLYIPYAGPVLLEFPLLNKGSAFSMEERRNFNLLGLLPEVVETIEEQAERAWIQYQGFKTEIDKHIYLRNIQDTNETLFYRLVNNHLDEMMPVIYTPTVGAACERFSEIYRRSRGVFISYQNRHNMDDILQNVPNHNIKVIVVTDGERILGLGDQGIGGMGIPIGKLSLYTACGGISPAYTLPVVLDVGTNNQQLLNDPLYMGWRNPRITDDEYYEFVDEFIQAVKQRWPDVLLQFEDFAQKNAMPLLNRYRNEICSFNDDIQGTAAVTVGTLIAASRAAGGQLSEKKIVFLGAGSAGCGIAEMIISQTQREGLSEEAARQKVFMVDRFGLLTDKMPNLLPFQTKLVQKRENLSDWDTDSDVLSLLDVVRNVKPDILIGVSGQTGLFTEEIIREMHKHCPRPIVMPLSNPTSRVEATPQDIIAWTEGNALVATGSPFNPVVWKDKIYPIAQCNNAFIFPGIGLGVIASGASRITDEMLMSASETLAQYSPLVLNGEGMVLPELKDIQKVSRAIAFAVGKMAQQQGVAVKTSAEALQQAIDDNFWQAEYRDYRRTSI

Regarding `NC(=O)c1ccc[n+]([C@@H]2O[C@H](COP(=O)([O-])OP(=O)(O)OC[C@H]3O[C@@H](n4ccc(N)nc4=O)[C@H](O)[C@@H]3O)[C@@H](O)[C@H]2O)c1` [NCD], the “malate oxidative decarboxylation, absorbance at 340 nm” value is “ME exhibited the highest activity towards NAD and weak activity towards NCD and NADP”.
